Values joined by “and” are separate entries in the source; they are usually repeats but may differ in a detail not shown here. Identical values can stand only once. Inconclusive results and toxic doses are left out. No stated cut-off is given here; in the data, active means T/C of 150% or more; inactive means T/C below 125%.
Tested on: L1210 leukemia ip in BDF1 mice, survival T/C
Assay: NCI In Vivo Anticancer Drug Screen. Data for tumor model L1210 Leukemia (intraperitoneal) in B6D2F1 (BDF1) mice
Details: endpoint: mean survival time, higher = longer survival
In short: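 Tumor cells were implanted, animals were treated, and survival was followed. The result divides the treated measurement by the vehicle-control measurement.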

[1] = dose: 100.0 mg/kg/injection, schedule: Q01DX001 (ip), vehicle: carboxymethylcellulose (CMC)
[2] = dose: 200.0 mg/kg/injection, schedule: Q01DX001 (ip), vehicle: carboxymethylcellulose (CMC)
[3] = dose: 400.0 mg/kg/injection, schedule: Q01DX001 (ip), vehicle: carboxymethylcellulose (CMC)
[4] = dose: 100.0 mg/kg/injection, schedule: Q01DX009 (ip), vehicle: saline with Tween-80
[5] = dose: 100.0 mg/kg/injection, schedule: Q04DX003 (ip), vehicle: saline with Tween-80
[6] = dose: 200.0 mg/kg/injection, schedule: Q01DX009 (ip), vehicle: saline with Tween-80
[7] = dose: 200.0 mg/kg/injection, schedule: Q04DX003 (ip), vehicle: saline with Tween-80
[8] = dose: 400.0 mg/kg/injection, schedule: Q04DX003 (ip), vehicle: saline with Tween-80
[9] = dose: 25.0 mg/kg/injection, schedule: Q04DX003 (ip), vehicle: saline
[10] = dose: 50.0 mg/kg/injection, schedule: Q04DX003 (ip), vehicle: saline
[11] = dose: 100.0 mg/kg/injection, schedule: Q04DX003 (ip), vehicle: saline
[12] = dose: 200.0 mg/kg/injection, schedule: Q04DX003 (ip), vehicle: saline
[13] = dose: 400.0 mg/kg/injection, schedule: Q04DX003 (ip), vehicle: saline
[14] = dose: 25.0 mg/kg/injection, schedule: Q01DX009 (ip), vehicle: Klucel (hydroxypropylcellulose) (HPC)
[15] = dose: 50.0 mg/kg/injection, schedule: Q01DX009 (ip), vehicle: Klucel (hydroxypropylcellulose) (HPC)
[16] = dose: 100.0 mg/kg/injection, schedule: Q01DX009 (ip), vehicle: Klucel (hydroxypropylcellulose) (HPC)
[17] = dose: 100.0 mg/kg/injection, schedule: Q01DX001 (ip), vehicle: saline
[18] = dose: 200.0 mg/kg/injection, schedule: Q01DX001 (ip), vehicle: saline
[19] = dose: 400.0 mg/kg/injection, schedule: Q01DX001 (ip), vehicle: saline

Measured: T/C

Nc1ncc(C(=O)O)c(N)n1
inactive: dose: 12.5 mg/kg/injection, schedule: Q01DX001 (ip), vehicle: other 101 % of control | dose: 12.5 mg/kg/injection, schedule: Q01DX009 (ip), vehicle: saline with Tween-80 110 % of control | dose: 12.5 mg/kg/injection, schedule: Q04DX003 (ip), vehicle: saline with Tween-80 101 % of control | dose: 25.0 mg/kg/injection, schedule: Q01DX001 (ip), vehicle: other 97 % of control | dose: 25.0 mg/kg/injection, schedule: Q01DX009 (ip), vehicle: saline with Tween-80 107 % of control | dose: 25.0 mg/kg/injection, schedule: Q04DX003 (ip), vehicle: saline with Tween-80 104 % of control | dose: 50.0 mg/kg/injection, schedule: Q01DX001 (ip), vehicle: other 101 % of control | dose: 50.0 mg/kg/injection, schedule: Q01DX009 (ip), vehicle: saline with Tween-80 102 % of control | dose: 50.0 mg/kg/injection, schedule: Q04DX003 (ip), vehicle: saline with Tween-80 108 % of control | dose: 100.0 mg/kg/injection, schedule: Q01DX001 (ip), vehicle: other 103 % of control

O=C1/C(=C/c2cccc3ccccc23)CCc2ccccc21
inactive: [1] 97 % of control | [2] 95 % of control | [3] 97 % of control

Cc1ccc(S(=O)(=O)OC2CC(C(=O)O)N(S(=O)(=O)c3ccc(C)cc3)C2)cc1 (centres undefined)
inactive: [4] 104 % of control | [5] 98 % of control and 92 % of control | [6] 95 % of control | [7] 97 % of control and 101 % of control | [8] 96 % of control and 107 % of control

CCCCNC(=O)OCC(C)(CCC)COC(N)=O (centres undefined)
inactive: dose: 25.0 mg/kg/injection, schedule: Q01DX009 (ip), vehicle: saline 101 % of control | [9] 95 % of control | dose: 50.0 mg/kg/injection, schedule: Q01DX009 (ip), vehicle: saline 101 % of control | [10] 95 % of control | dose: 100.0 mg/kg/injection, schedule: Q01DX009 (ip), vehicle: saline 109 % of control | [11] 101 % of control | dose: 200.0 mg/kg/injection, schedule: Q01DX009 (ip), vehicle: saline 104 % of control | [12] 95 % of control | dose: 400.0 mg/kg/injection, schedule: Q01DX009 (ip), vehicle: saline 103 % of control | [13] 95 % of control

c1cc2c3c(ccc4c3c1CCC4)CCC2
inactive: dose: 100.0 mg/kg/injection, schedule: Q04DX002 (ip), vehicle: gum acacia 91 % of control | dose: 200.0 mg/kg/injection, schedule: Q04DX002 (ip), vehicle: gum acacia 100 % of control | dose: 400.0 mg/kg/injection, schedule: Q04DX002 (ip), vehicle: gum acacia 95 % of control

O=C1c2cccc3c(Br)ccc(c23)C(=O)N1CCCN1CCOCC1
inactive: [14] 97 % of control | [15] 90 % of control | [16] 102 % of control

COc1cc2c(cc1OC)C(=O)Cc1ccc3c(c1CN(C)CC2)OCO3
inactive: [16] 95 % of control | dose: 200.0 mg/kg/injection, schedule: Q01DX009 (ip), vehicle: Klucel (hydroxypropylcellulose) (HPC) 95 % of control

CC1CCCC(C)N1C1=NCCO1 (centres undefined)
inactive: dose: 5.0 mg/kg/injection, schedule: Q01DX009 (ip), vehicle: saline with Tween-80 95 % of control | dose: 10.0 mg/kg/injection, schedule: Q01DX009 (ip), vehicle: saline with Tween-80 97 % of control | dose: 20.0 mg/kg/injection, schedule: Q01DX009 (ip), vehicle: saline with Tween-80 95 % of control

O=C(O)c1cccc2ccc3ccccc3c12
inactive: [17] 121 % of control | [11] 102 % of control | [18] 101 % of control | [12] 96 % of control | [19] 97 % of control | [13] 96 % of control

Cc1c(Cl)cc(Cl)c2ncccc12
inactive: dose: 12.5 mg/kg/injection, schedule: Q04DX003 (ip), vehicle: Klucel (hydroxypropylcellulose) (HPC) 95 % of control | dose: 25.0 mg/kg/injection, schedule: Q04DX003 (ip), vehicle: Klucel (hydroxypropylcellulose) (HPC) 86 % of control | dose: 50.0 mg/kg/injection, schedule: Q04DX003 (ip), vehicle: Klucel (hydroxypropylcellulose) (HPC) 96 % of control

c1ccc2c(c1)OC1(CCSCC1)O2
inactive: [5] 98 % of control | [7] 95 % of control | [8] 97 % of control

NC(=S)N/N=C(\c1ccc(F)cc1)C1CC1
inactive: dose: 1.0 mg/kg/injection, schedule: Q01DX Z (ip), vehicle: methylcellulose (MC) 92 % of control | dose: 2.0 mg/kg/injection, schedule: Q01DX Z (ip), vehicle: methylcellulose (MC) 101 % of control | dose: 4.0 mg/kg/injection, schedule: Q01DX Z (ip), vehicle: methylcellulose (MC) 97 % of control | dose: 8.0 mg/kg/injection, schedule: Q01DX Z (ip), vehicle: methylcellulose (MC) 93 % of control | dose: 8.0 mg/kg/injection, schedule: Q01DX Z (oral), vehicle: methylcellulose (MC) 100 % of control

COC1C(O)C(CO)OC1n1cnc2c(=S)nc[nH]c21 (centres undefined)
inactive: dose: 50.0 mg/kg/injection, schedule: Q01DX001 (ip), vehicle: carboxymethylcellulose (CMC) 102 % of control | dose: 88.8 mg/kg/injection, schedule: Q01DX001 (ip), vehicle: carboxymethylcellulose (CMC) 102 % of control and 112 % of control | [1] 102 % of control | dose: 133.0 mg/kg/injection, schedule: Q01DX001 (ip), vehicle: carboxymethylcellulose (CMC) 110 % of control and 116 % of control | [2] 110 % of control and 116 % of control | dose: 300.0 mg/kg/injection, schedule: Q01DX001 (ip), vehicle: carboxymethylcellulose (CMC) 102 % of control and 116 % of control | [3] 102 % of control

Cc1cc(Cl)nc2ccc(Cc3ccc(Cl)cc3)cc12
inactive: [17] 97 % of control | [18] 92 % of control | [19] 93 % of control

O=[N+]([O-])c1ccc(/C=C/C=C/c2ccccc2)cc1
inactive: [4] 105 % of control | [6] 92 % of control | dose: 400.0 mg/kg/injection, schedule: Q01DX009 (ip), vehicle: saline with Tween-80 89 % of control

CCC(C1CCC(O)CC1)C(CC)C1CCC(c2ccc(=O)oc2)C1 (centres undefined)
inactive: [9] 100 % of control | [10] 103 % of control | [11] 103 % of control

CN(C)N=Nc1cccc(C(=O)O)c1
inactive: dose: 50.0 mg/kg/injection, schedule: Q04DX002 (ip), vehicle: other 106 % of control | dose: 100.0 mg/kg/injection, schedule: Q04DX002 (ip), vehicle: other 113 % of control | dose: 200.0 mg/kg/injection, schedule: Q04DX002 (ip), vehicle: other 113 % of control | dose: 400.0 mg/kg/injection, schedule: Q04DX002 (ip), vehicle: other 124 % of control

COc1cc(Cl)ccc1NC(=O)Oc1ccccc1C(N)=O
inactive: dose: 6.25 mg/kg/injection, schedule: Q01DX009 (ip), vehicle: Klucel (hydroxypropylcellulose) (HPC) 102 % of control | dose: 12.5 mg/kg/injection, schedule: Q01DX009 (ip), vehicle: Klucel (hydroxypropylcellulose) (HPC) 91 % of control | [14] 97 % of control | [15] 91 % of control | [16] 100 % of control

O=C(COc1ccc(Cl)c(Cl)c1)Nc1ccc[n+](Cc2cc(Cl)ccc2S(=O)(=O)F)c1
inactive: [17] 97 % of control | [18] 105 % of control | [19] 94 % of control

Reference: PubChem BioAssay AID248 (DTP/NCI, 2004)
